# From the supplement of paper PMC10307832
# Tests used:
# Test in all cases: relative viability (nuclei count vs DMSO), 5 days (fraction); higher = more cells survive
# [1] = test system: COR-L23
# Summary of the method: (§1)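 Relative viability equals treated-well nuclei counts divided by vehicle-well nuclei counts. Counts came from 4× images of lung cancer cell lines grown in 1536-well plates for 5 days after pin-tool dosing on the day after seeding. Dosing used one drug alone or a fixed anchor-drug dose plus five library-drug doses (not always all listed) in √10 steps, and values are medians of duplicate plates.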
# [2] = test system: NCI-H2023
# Summary of the method: as §1
# [3] = test system: NCI-H1993
# Summary of the method: as §1
# [4] = test system: NCI-H1734
# Summary of the method: as §1
# [5] = test system: PC-14
# Summary of the method: as §1
# [6] = test system: RERF-LC-KJ
# Summary of the method: as §1
# [7] = test system: ABC-1
# Summary of the method: as §1
# [8] = test system: NCI-H2085
# Summary of the method: as §1
# [9] = test system: NCI-H520
# Summary of the method: as §1
# [10] = test system: NCI-H2170
# Summary of the method: as §1
# [11] = test system: NCI-H3122
# Summary of the method: as §1
# [12] = test system: EPLC-272H
# Summary of the method: as §1
# [13] = test system: 201T
# Summary of the method: as §1
# [14] = test system: NCI-H441
# Summary of the method: as §1
# [15] = test system: EKVX
# Summary of the method: as §1
# [16] = test system: NCI-H1650
# Summary of the method: as §1
# [17] = test system: NCI-H2405
# Summary of the method: as §1
# [18] = test system: NCI-H2347
# Summary of the method: as §1
# [19] = test system: NCI-H1563
# Summary of the method: as §1
# [20] = test system: NCI-H647
# Summary of the method: as §1
# [21] = test system: LOU-NH91
# Summary of the method: as §1
# [22] = test system: HCC-44
# Summary of the method: as §1
smiles,measurement,setting,value
C[C@@H]1CN(CC(=O)Nc2ccc3c(c2)Cc2cccc(-c4cc(=O)cc(N5CCOCC5)o4)c2S3)C[C@H](C)O1 + C[C@@H](Oc1cc(-c2cnn(C3CCNCC3)c2)cnc1N)c1c(Cl)ccc(F)c1Cl [Crizotinib] (partner 1 µM),relative viability,[1]; first compound 0.04 µM,0.678
same,relative viability,[1]; first compound 0.1265 µM,0.625
same,relative viability,[1]; first compound 0.4 µM,0.693
same,relative viability,[1]; first compound 4 µM,0.516
same,relative viability,[2]; first compound 0.04 µM,0.655
same,relative viability,[2]; first compound 0.1265 µM,0.634
same,relative viability,[2]; first compound 0.4 µM,0.664
same,relative viability,[2]; first compound 4 µM,0.516
same,relative viability,[3]; first compound 0.04 µM,0.876
same,relative viability,[3]; first compound 0.1265 µM,0.846
same,relative viability,[3]; first compound 0.4 µM,0.661
same,relative viability,[3]; first compound 4 µM,0.85
same,relative viability,[4]; first compound 0.04 µM,0.762
same,relative viability,[4]; first compound 0.1265 µM,0.651
same,relative viability,[4]; first compound 0.4 µM,0.627
same,relative viability,[4]; first compound 4 µM,0.663
same,relative viability,[5]; first compound 0.04 µM,0.976
same,relative viability,[5]; first compound 0.1265 µM,0.982
same,relative viability,[5]; first compound 0.4 µM,0.859
same,relative viability,[5]; first compound 4 µM,0.706
same,relative viability,[6]; first compound 0.04 µM,0.861
same,relative viability,[6]; first compound 0.1265 µM,0.779
same,relative viability,[6]; first compound 0.4 µM,0.909
same,relative viability,[6]; first compound 4 µM,0.722
same,relative viability,[7]; first compound 0.1265 µM,1.17
same,relative viability,[7]; first compound 0.4 µM,1.15
same,relative viability,[7]; first compound 4 µM,0.723
same,relative viability,[8]; first compound 0.04 µM,0.922
same,relative viability,[8]; first compound 0.1265 µM,0.88
same,relative viability,[8]; first compound 0.4 µM,0.773
same,relative viability,[8]; first compound 4 µM,0.665
same,relative viability,[9]; first compound 0.04 µM,0.64
same,relative viability,[9]; first compound 0.1265 µM,0.711
same,relative viability,[9]; first compound 0.4 µM,0.497
same,relative viability,[9]; first compound 4 µM,0.534
same,relative viability,[10]; first compound 0.1265 µM,1.2
same,relative viability,[10]; first compound 0.4 µM,1.21
same,relative viability,[10]; first compound 4 µM,1.1
same,relative viability,[11]; first compound 0.04 µM,0.349
same,relative viability,[11]; first compound 0.1265 µM,0.324
same,relative viability,[11]; first compound 0.4 µM,0.264
same,relative viability,[11]; first compound 4 µM,0.282
same,relative viability,[12]; first compound 0.04 µM,1.27
same,relative viability,[12]; first compound 0.1265 µM,0.971
same,relative viability,[12]; first compound 0.4 µM,0.997
same,relative viability,[12]; first compound 4 µM,0.83
same,relative viability,[13]; first compound 0.04 µM,1.05
same,relative viability,[13]; first compound 0.1265 µM,0.98
same,relative viability,[13]; first compound 0.4 µM,1.04
same,relative viability,[13]; first compound 4 µM,0.971
same,relative viability,[14]; first compound 0.04 µM,0.944
same,relative viability,[14]; first compound 0.1265 µM,0.788
same,relative viability,[14]; first compound 0.4 µM,0.707
same,relative viability,[14]; first compound 4 µM,0.587
same,relative viability,[15]; first compound 0.04 µM,0.924
same,relative viability,[15]; first compound 0.1265 µM,0.947
same,relative viability,[15]; first compound 0.4 µM,1.13
same,relative viability,[15]; first compound 4 µM,0.876
same,relative viability,[16]; first compound 0.04 µM,0.991
same,relative viability,[16]; first compound 0.1265 µM,0.959
same,relative viability,[16]; first compound 0.4 µM,1.1
same,relative viability,[16]; first compound 4 µM,0.55
same,relative viability,[17]; first compound 0.04 µM,0.754
same,relative viability,[17]; first compound 0.1265 µM,0.855
same,relative viability,[17]; first compound 0.4 µM,0.893
same,relative viability,[17]; first compound 4 µM,0.8
same,relative viability,[18]; first compound 0.04 µM,0.784
same,relative viability,[18]; first compound 0.1265 µM,0.754
same,relative viability,[18]; first compound 0.4 µM,0.735
same,relative viability,[18]; first compound 4 µM,0.578
same,relative viability,[19]; first compound 0.04 µM,0.852
same,relative viability,[19]; first compound 0.1265 µM,0.849
same,relative viability,[19]; first compound 0.4 µM,0.688
same,relative viability,[19]; first compound 4 µM,0.747
same,relative viability,[20]; first compound 0.04 µM,1.04
same,relative viability,[20]; first compound 0.1265 µM,1.09
same,relative viability,[20]; first compound 0.4 µM,1.09
same,relative viability,[20]; first compound 4 µM,0.592
same,relative viability,[21]; first compound 0.04 µM,0.764
same,relative viability,[21]; first compound 0.1265 µM,0.752
same,relative viability,[21]; first compound 0.4 µM,0.948
same,relative viability,[21]; first compound 4 µM,0.72
same,relative viability,[22]; first compound 0.04 µM,0.853
same,relative viability,[22]; first compound 0.1265 µM,0.828
same,relative viability,[22]; first compound 0.4 µM,0.699
same,relative viability,[22]; first compound 4 µM,0.526
CC(C)Oc1cc(Nc2nc(N[C@@H](C)c3ccc(F)cn3)ncc2Cl)n[nH]1 [AZ23] + C[C@@H](Oc1cc(-c2cnn(C3CCNCC3)c2)cnc1N)c1c(Cl)ccc(F)c1Cl [Crizotinib] (partner 1 µM),relative viability,[1]; first compound 0.01 µM,0.763
same,relative viability,[1]; first compound 0.03162 µM,0.828
same,relative viability,[1]; first compound 0.3162 µM,0.766
same,relative viability,[2]; first compound 0.03162 µM,0.825
same,relative viability,[2]; first compound 0.3162 µM,0.616
same,relative viability,[3]; first compound 0.01 µM,0.857
same,relative viability,[3]; first compound 0.3162 µM,0.804
same,relative viability,[4]; first compound 0.01 µM,0.713
same,relative viability,[4]; first compound 0.03162 µM,0.782
same,relative viability,[4]; first compound 0.3162 µM,0.76
same,relative viability,[5]; first compound 0.01 µM,0.896
same,relative viability,[5]; first compound 0.03162 µM,1.21
same,relative viability,[5]; first compound 0.3162 µM,0.89
same,relative viability,[6]; first compound 0.01 µM,1
same,relative viability,[6]; first compound 0.03162 µM,1
same,relative viability,[6]; first compound 0.3162 µM,0.915
same,relative viability,[7]; first compound 0.01 µM,0.752
same,relative viability,[7]; first compound 0.03162 µM,1.27
same,relative viability,[7]; first compound 0.3162 µM,1.25
same,relative viability,[8]; first compound 0.01 µM,1.03
same,relative viability,[8]; first compound 0.03162 µM,0.94
same,relative viability,[8]; first compound 0.3162 µM,0.838
same,relative viability,[9]; first compound 0.01 µM,0.869
same,relative viability,[9]; first compound 0.03162 µM,0.864
same,relative viability,[9]; first compound 0.3162 µM,0.732
same,relative viability,[10]; first compound 0.01 µM,1.67
same,relative viability,[10]; first compound 0.03162 µM,1.45
same,relative viability,[10]; first compound 0.3162 µM,1.42
same,relative viability,[11]; first compound 0.01 µM,0.28
same,relative viability,[11]; first compound 0.03162 µM,0.262
same,relative viability,[11]; first compound 0.3162 µM,0.305
same,relative viability,[12]; first compound 0.01 µM,1.19
same,relative viability,[12]; first compound 0.03162 µM,1.19
same,relative viability,[13]; first compound 0.01 µM,1.06
same,relative viability,[13]; first compound 0.03162 µM,1.05
same,relative viability,[13]; first compound 0.3162 µM,1.01
same,relative viability,[14]; first compound 0.01 µM,1.15
same,relative viability,[14]; first compound 0.03162 µM,0.914
same,relative viability,[14]; first compound 0.3162 µM,0.774
same,relative viability,[15]; first compound 0.01 µM,1.05
same,relative viability,[15]; first compound 0.03162 µM,1.03
same,relative viability,[15]; first compound 0.3162 µM,1.03
same,relative viability,[16]; first compound 0.01 µM,0.863
same,relative viability,[16]; first compound 0.03162 µM,1.4
same,relative viability,[16]; first compound 0.3162 µM,0.984
same,relative viability,[17]; first compound 0.01 µM,0.825
same,relative viability,[17]; first compound 0.03162 µM,0.904
same,relative viability,[17]; first compound 0.3162 µM,0.854
same,relative viability,[18]; first compound 0.01 µM,0.736
same,relative viability,[18]; first compound 0.03162 µM,0.861
same,relative viability,[18]; first compound 0.3162 µM,0.654
same,relative viability,[19]; first compound 0.01 µM,0.837
same,relative viability,[19]; first compound 0.03162 µM,0.912
same,relative viability,[19]; first compound 0.3162 µM,0.865
same,relative viability,[20]; first compound 0.01 µM,1.71
same,relative viability,[20]; first compound 0.03162 µM,1.37
same,relative viability,[20]; first compound 0.3162 µM,1.3
same,relative viability,[21]; first compound 0.01 µM,0.719
same,relative viability,[21]; first compound 0.03162 µM,0.727
same,relative viability,[21]; first compound 0.3162 µM,0.771
same,relative viability,[22]; first compound 0.01 µM,0.934
same,relative viability,[22]; first compound 0.03162 µM,0.952
same,relative viability,[22]; first compound 0.3162 µM,0.826
